The subject of data set [1] is in vitro epithelial tissue model (EpiAirway™). The data set is described as follows: Drug permeation (Papp) in the in vitro epithelial tissue model. The text has this: (§1) A. A “kit” of 24 EpiAirway™ units can routinely be employed for evaluating five different formulations, each of which is applied to quadruplicate wells. Each well is employed for determination of permeation kinetics (4 time points), transepithelial electrical resistance (TER). An additional set of wells is employed as controls, which are sham treated during determination of permeation kinetics, but are otherwise handled identically to the test sample-containing units for determinations of transepithelial resistance and viability.
(§2) B. In all experiments, the mucosal delivery formulation to be studied is applied to the apical surface of each unit in a volume of 100 μL, which is sufficient to cover the entire apical surface. An appropriate volume of the test formulation at the concentration applied to the apical surface (no more than 100 μL is generally needed) is set aside for subsequent determination of concentration of the active material by ELISA or other designated assay.
(§3) D. In order to minimize potential sources of error and avoid any formation of concentration gradients, the units are transferred from one 0.9 mL-containing well to another at each time point in the study. These transfers are made at the following time points, based on a zero time at which the 100 μL volume of test material was applied to the apical surface: 15 minutes, 30 minutes, 60 minutes, and 120 minutes.
(§4) F. At the completion of each time point, the medium is removed from the well from which each unit was transferred, and aliquotted into two tubes (one tube receives 700 μL and the other 200 μL) for determination of the concentration of permeated test material and, in the event that the test material is cytotoxic, for release of the cytosolic enzyme, lactate dehydrogenase, from the epithelium. These samples are kept in the refrigerator if the assays are to be conducted within 24 hours, or the samples are subaliquotted and kept frozen at −80° C. until thawed once for assays. Repeated freeze-thaw cycles are to be avoided.
(§5) EIA kit (p/n S-1178(EIAH6101) was purchased from Peninsula Laboratories Inc. (Division of BACHEM, San Carlos, Calif., 800-922-1516). 17×120 mm polypropylene conical tubes (p/n 352097, Falcon, Franklin Lakes, N.J.) were used for all sample preparations. Eight standards were used for PTH quantitation. The rest of the assay procedure was the same as the kit inserts.
(§6) The instant study was designed to evaluate the effect of PN159 itself or in combination with additional permeation enhancers on PTH permeation. The PN159 concentrations evaluated are 25, 50, and 100 μM. The additional permeation enhancers are 45 mg/ml M-β-CD, 1 mg/ml DDPC, and 1 mg/ml EDTA. Sorbitol was used as a tonicifier (146-190 mM) to adjust the osmolarity of formulations to 220 mOsm/kg. The formulation pH was fixed at 4.5. PTH was chosen as a model peptide in this example. 2 mg/ml PTH was combined with PN159 with or without additional permeation enhancers. The combination was tested using an in vitro epithelial tissue model to monitor PTH permeation, transepithelial electrical resistance (TER), and the cytotoxicity of the formulation by LDH assay.
(§7) The concentrations of MC-4RA in the basolateral media was analyzed by the RP-HPLC using a C18 RP chromatography with a flow rate of 1 mL/minute and a column temperature of 25° C. • Solvent A: 0.1% TFA in water; Solvent B: 0.1% TFA in ACN • Injection Volume: 50 μL • Detection: 220 nm • RUN TIME: 15 MIN
(§8) Galantamine concentration in the formulation and in the basolateral media (permeation samples) was determined using an isocratic LC (Waters Alliance) method with UV detection. • Column: Waters Symmetry Shield, C18, 5 um, 25×0.46 cm • Mobile phase: 5% ACN in 50 mM ammonium formate, pH 3.0 • Flow rate: 1 ml/min • Column temperature: 30° C. • Calibration curve: 0-400 μg/ml Galantamine HBr • Detection: UV at 285 nm

Assay in data set [2]: as above
As to conditions: human, pH 5, Papp.
Text: as §1, §2, §3, §4, §5, §6, §7, §8

[3] abbreviates: [PN159] 0 μM, galantamine 40 mg/mL pH 5.0, calcitonin 1 mg/mL pH 3.5, PTH1-34 1 mg/mL pH 4.5, PYY3-36 1 mg/mL pH 5.0.
The mark [4] stands for this setting: [PN159] 25 μM, galantamine 40 mg/mL pH 5.0, calcitonin 1 mg/mL pH 3.5, PTH1-34 1 mg/mL pH 4.5, PYY3-36 1 mg/mL pH 7.0.
The mark [5] stands for this setting: [PN159] 100 μM, galantamine 40 mg/mL pH 5.0, calcitonin 1 mg/mL pH 3.5, PTH1-34 1 mg/mL pH 4.5, PYY3-36 1 mg/mL pH 7.0.
Setting [6] is: [PN159] 50 μM, galantamine 40 mg/mL pH 5.0, calcitonin 1 mg/mL pH 3.5, PTH1-34 1 mg/mL pH 4.5.

Structures are written as SMILES. Where two headings read alike, the source gives them in different places.

As usually defined, the Papp is the rate of passage across a membrane or cell layer, normalised by area and donor concentration. On to `CC[C@H](C)[C@H](NC(=O)[C@H](CCC(=O)O)NC(=O)[C@H](CO)NC(=O)[C@@H](NC(=O)[C@@H](N)CO)C(C)C)C(=O)N[C@@H](CCC(N)=O)C(=O)N[C@@H](CC(C)C)C(=O)N[C@@H](CCSC)C(=O)N[C@@H](Cc1cnc[nH]1)C(=O)N[C@@H](CC(N)=O)C(=O)N[C@@H](CC(C)C)C(=O)NCC(=O)N[C@@H](CCCCN)C(=O)N[C@@H](Cc1cnc[nH]1)C(=O)N[C@@H](CC(C)C)C(=O)N[C@@H](CC(N)=O)C(=O)N[C@@H](CO)C(=O)N[C@@H](CCSC)C(=O)N[C@@H](CCC(=O)O)C(=O)N[C@@H](CCCN=C(N)N)C(=O)N[C@H](C(=O)N[C@@H](CCC(=O)O)C(=O)N[C@@H](Cc1c[nH]c2ccccc12)C(=O)N[C@@H](CC(C)C)C(=O)N[C@@H](CCCN=C(N)N)C(=O)N[C@@H](CCCCN)C(=O)N[C@@H](CCCCN)C(=O)N[C@@H](CC(C)C)C(=O)N[C@@H](CCC(N)=O)C(=O)N[C@@H](CC(=O)O)C(=O)N[C@H](C(=O)N[C@@H](Cc1cnc[nH]1)C(=O)N[C@@H](CC(N)=O)C(=O)N[C@@H](Cc1ccccc1)C(=O)O)C(C)C)C(C)C` [PTH1-34, human parathyroid hormone 1-34], for which, in data set [1], the “fold increase in Papp in the presence of PN159” value (from here on “fold increase in Papp”) was 3-5 fold. For the same molecule, the Papp in data set [1] (setting [3]) was determined as 0.11 ×10⁻⁶ cm/s; in data set [1] (setting [4]), 0.34 ×10⁻⁶ cm/s; in data set [1] (setting [5]), 0.43 ×10⁻⁶ cm/s.

In general, Papp A→B refers to how fast a substance crosses the layer from the apical side. For the molecule `COc1ccc2c3c1O[C@H]1C[C@@H](O)C=C[C@@]31CCN(C)C2` [Galantamine, galantamine], the Papp A→B at 120 min, 40 mg/mL in data set [2] (setting [3]) is approximately 2.1 ×10⁻⁶ cm/s; in data set [2] (setting [4]), 5.1 ×10⁻⁶ cm/s; in data set [2] (setting [6]) it was 6.2 ×10⁻⁶ cm/s; in data set [2] (setting [5]), 7.2 ×10⁻⁶ cm/s. Also, in data set [1] (PN159 25-100 vs drug alone), the “fold increase in Papp” value is 2.5-3.5 fold. Besides, the Papp in data set [1] (setting [3]) came out at 2.1 ×10⁻⁶ cm/s.

For the molecule `CC(C)C[C@H](NC(=O)[C@H](CCCCN)NC(=O)CNC(=O)[C@H](CC(C)C)NC(=O)[C@@H](NC(=O)[C@@H]1CSSC[C@H](N)C(=O)N[C@@H](CO)C(=O)N[C@@H](CC(N)=O)C(=O)N[C@@H](CC(C)C)C(=O)N[C@@H](CO)C(=O)N[C@@H]([C@@H](C)O)C(=O)N1)C(C)C)C(=O)N[C@@H](CO)C(=O)N[C@@H](CCC(N)=O)C(=O)N[C@@H](CCC(=O)O)C(=O)N[C@@H](CC(C)C)C(=O)N[C@@H](Cc1c[nH]cn1)C(=O)N[C@@H](CCCCN)C(=O)N[C@@H](CC(C)C)C(=O)N[C@@H](CCC(N)=O)C(=O)N[C@H](C(=O)N[C@@H](Cc1ccc(O)cc1)C(=O)N1CCC[C@H]1C(=O)N[C@@H](CCCNC(=N)N)C(=O)N[C@H](C(=O)N[C@@H](CC(N)=O)C(=O)N[C@H](C(=O)NCC(=O)N[C@@H](CO)C(=O)NCC(=O)N[C@H](C(=O)N1CCC[C@H]1C(N)=O)[C@@H](C)O)[C@@H](C)O)[C@@H](C)O)[C@@H](C)O` [Calcitonin, salmon calcitonin], in data set [1], the “fold increase in Papp” value is on record as 23-47 fold. For the same molecule, the Papp is 0.097 ×10⁻⁶ cm/s in data set [1] (setting [3]); “about 1×10^−7 cm/s” in data set [1] ([PN159] 0 μM, galantamine 40 mg/mL pH 5.0, calcitonin 1 mg/mL pH 3.5, PTH1-34 1 mg/mL pH 4.5, PYY3-36 1 mg/mL pH 5.0, listed as calcitonin); 2.2 ×10⁻⁶ cm/s in data set [1] (setting [4]); 3.3 ×10⁻⁶ cm/s in data set [1] (setting [6]).

These data come from US20090220435A1, “TIGHT JUNCTION MODULATING PEPTIDE COMPONENTS FOR ENHANCING MUCOSAL DELIVERY OF THERAPEUTIC AGENTS” (priority 2005, published 2009).
